From patent US11884706B2, “Immunomodulating peptide derived from concave-eared torrent frog and use thereof” (priority 2019, dated 2024) come the findings set out here.

Test [1] has as its system mouse fibroblasts. Put plainly: Fibroblast proliferation, co-incubation with mouse macrophages BMDMs (CCK-8). Type of test: cell-based. As to conditions: mouse fibroblasts with BMDMs, 25, 50, 100 μg/mL, 72 h. On the procedure:
(§1) HaCat was co-incubated with THP-1 derived macrophages, and mouse fibroblasts were co-incubated with mouse macrophages BMDMs. HaCat (1×10^5 cells/well) or mouse fibroblasts (1×10^5 cells/well) were inoculated into a 24-well plate (lower chamber) one day in advance. After adherence, corresponding macrophages (1×10^5 cells/well, 100 μL) and different concentrations of Ot-WHP (25, 50, 100 μg/mL) or Vehicle (PBS, control) were added to the co-incubation chamber (upper chamber). After HaCat was co-incubated with THP-1-derived macrophages for 24 h, and the fibroblasts were co-incubated with mouse macrophages BMDMs for 72 h, the co-incubated upper chamber was discarded, and the cell activity in the lower chamber was detected by CCK-8.

Test [2] relates to mouse bone marrow-derived macrophages (BMDMs). Put plainly: Chemokine and cytokine production in BMDM supernatant. The test is classed as cell-based. As to conditions: 25, 50, 100 μg/mL, 24 h, vs PBS. On the procedure:
To clarify why Ot-WHP can cause the migration of neutrophils and macrophages in the coexistence of macrophages, mouse bone marrow-derived macrophages (BMDMs, 5×10^5 cells/well, DMEM medium, 2% FBS) were plated in a 24-well plate, Ot-WHP (25, 50, 100 μg/mL) or an equal volume of PBS (Vehicle) were added, and cultured for 24 h. The supernatant was collected, and centrifuged at 10000×g for 10 min. The chemokines and cytokines were determined.

Test [3] has as its system HaCat. Put plainly: Keratinocyte proliferation, co-incubation with THP-1 derived macrophages (CCK-8). The test is classed as cell-based. The settings on record: HaCat with THP-1 derived macrophages, 25, 50, 100 μg/mL, 24 h. The protocol: as §1
The test system of test [4] is mouse skin wounds. Put plainly: Skin wound healing in mice (8 mm biopsy punch wound on the back). As to conditions: 20 μL, 200 μg/mL dripped into wound once a day for 8 days; days 2, 4, 6, 8 after operation; vs PBS. Type of test: in vivo, BALB/c mice. On the procedure: Experimental animals BALB/c mice, female, 6-8 weeks old, weighed 18-20 g, were purchased from Shanghai Slac Animal Co., Ltd. The mice were anesthetized by intraperitoneal injection of 2% sodium pentobarbital (0.1 mL/20 g), and the back was shaved with an electric razor and disinfected with iodophor. A hole was punched in the exposed back by a biopsy punch having a diameter of 8 mm. After the operation, the mice were kept in separate cages until the end of the experiment. The mice were randomly divided into 6 groups having 5 animals in each group, including a negative control group (20 μL PBS), a natural Ot-WHP group (20 μL, 200 μg/mL), a synthetic Ot-WHP group (20 μL, 200 μg/mL), a scrambled Ot-WHP group (SEQ ID NO:2, 20 μL, 200 μg/mL), an AH90 positive polypeptide control group (20 μL, 200 μg/mL), and an EGF growth factor control group (20 μL, 100 μg/mL). The drugs were dripped into corresponding wounds in mice once a day for 8 days.
FIGS. 3A1-A4 show the wound healing rate of mice in different experimental groups at 2, 4, 6, and 8 days after surgery. In the figures, Vehicle represents the negative control group; synthetic Ot-WHP represents the synthetic Ot-WHP group; Natural Ot-WHP represents the natural Ot-WHP group; and Scrambled Ot-WHP represents the scrambled Ot-WHP group.

Test [5] concerns skin wounds of mice. Put plainly: Chemokine and cytokine production in skin wound tissue homogenate. Type of test: in vivo. As to conditions: days 0, 0.5, 1, 2, 4, 6, vs PBS. The protocol: Then whether Ot-WHP can induce the production of chemokines and cytokines in the skin wounds of mice was tested. At specified time points (days 0, 0.5, 1, 2, 4, and 6), the wound tissue of the mice was removed and homogenized with 0.1 M PBS (containing 1 mM PMSF, 1 mL/g tissue) in a glass homogenizer. After the homogenization, the homogenate was centrifuged at 12000×g and 4° C. for 30 min. The supernatant was collected, and the chemokines (CXCL1 and CCL2) and cytokines (including TNF-α and TGF-β1) were determined.

The subject of test [6] is Keratinocytes HaCat. As to the kind of experiment: Keratinocyte proliferation, direct (CCK-8). The test is classed as cell-based. The settings on record: HaCat, 25, 50, 100 μg/mL, 24 h. On the procedure: Keratinocytes HaCat and mouse fibroblasts (5×10^3 cells/well, 100 μL/well) were inoculated into a 96-well plate, and incubated with different concentrations of Ot-WHP (25, 50, and 100 μg/mL). PBS was used as a control. After HaCat was incubated with Ot-WHP for 24 h, and the fibroblasts were incubated with Ot-WHP for 72 h, 10 μl of Cell Counting Kit-8 (CCK-8) solution was added to each well, and incubated for another 2-4 h at 37° C. The absorbency at 450 nm was detected on a microplate reader.

The subject of test [7] is mouse neutrophils. As to the kind of experiment: Transwell migration in co-incubation system with BMDMs in lower chamber. Type of test: cell-based. As to conditions: 25-100 μg/mL, 8 h. The protocol: (§2) In a co-incubation system, mouse bone marrow-derived macrophages (BMDMs, 4×10^6 cells/mL, 500 μL) resuspended in RPMI 1640 medium containing 2% FBS were plated in the lower chamber (24-well plate) of the co-incubation chamber. After adherence, the prepared mouse neutrophils (7×10^6 cells/mL, 100 μL) or bone marrow-derived macrophages (BMDMs, 7×10^6 cells/mL, 100 μL) were added to the Transwell chamber with a pore size of 3.0 μm (upper chamber, 24-well plate). Then 500 μL of Ot-WHP (25, 50, 100 μg/mL, dissolved in RPMI 1640 medium containing 2% FBS) or the culture medium (control) was added to the lower chamber, and then cultured in a cell incubator at 37° C. for 8 h. The cells in the upper chamber were collected and counted with a hemocytometer. The reduced cells in the upper chamber are the migrated cells

For test [8], the system named is bone marrow-derived macrophages (BMDMs). Put plainly: Transwell migration, direct (peptide in lower chamber). The test is classed as cell-based, mouse. As to conditions: 25-100 μg/mL, 8 h, no macrophages in lower chamber. The protocol: To clarify how Ot-WHP chemoattracts neutrophils and macrophages to the wound area, the prepared mouse neutrophils or bone marrow-derived macrophages (BMDMs) were resuspended in RPMI 1640 medium containing 2% FBS at a cell density of 7×10^6 cells/mL. 100 μL was pipetted to a Transwell chamber with a pore size of 3.0 μm (upper chamber, 24-well plate). Then 500 μL of Ot-WHP (25, 50, 100 μg/mL, dissolved in RPMI 1640 medium containing 2% FBS) or the culture medium (control) was pipetted to the lower chamber, and then cultured in a cell incubator at 37° C. for 8 h. The cells in the lower chamber were collected and counted with a hemocytometer.

Test [9] has the same test system. Put plainly: Transwell migration in co-incubation system with BMDMs in lower chamber. Type of test: cell-based, mouse. As to conditions: 25-100 μg/mL, 8 h. The protocol:
as §2

Turning to “Ot-WHP: immunomodulating peptide of 24 amino acids from concave-eared torrent frog skin, sequence ATAWDLGPHGIRPLRPIRIRPLCG (SEQ ID NO:1); natural (purified) or chemically synthesized (Ot-WHP Peptide; listed as Odorrana tormota)”, in test [1], the “proliferation of fibroblasts when macrophages coexist” value is listed as “can promote the proliferation”. Also, in test [2], the “CCL2 production in BMDMs” value is recorded as “induces mouse BMDMs to produce”, the “CXCL1 production in BMDMs” value was “induces mouse BMDMs to produce”, the “CXCL2 production in BMDMs” value is “induces mouse BMDMs to produce” and the “CXCL3 production in BMDMs” value is given as “induces mouse BMDMs to produce”. In addition, in test [2], the “IL-1β production in BMDMs” value was “induces mouse BMDMs to produce”, the “IL-6 production in BMDMs” value is reported as “induces mouse BMDMs to produce”, the “TGF-β1 production in BMDMs” value is listed as “induces mouse BMDMs to produce” and the “TNF-α production in BMDMs” value was “induces mouse BMDMs to produce”. Further, the “proliferation of keratinocytes when macrophages coexist” value in test [3] is “can promote the proliferation”. Moreover, in [4], the “healing of mouse skin wounds (wound healing rate)” value was “significantly promote the healing of mouse skin wounds with an effect comparable to AH90 and EGF”. In test [5], the “CCL2 production in skin wounds” value is given as “effectively induce the production”, the “CXCL1 production in skin wounds” value is recorded as “effectively induce the production”, the “TGF-β1 production in skin wounds” value is reported as “effectively induce the production” and the “TNF-α production in skin wounds” value is listed as “effectively induce the production”. Besides, the “proliferation of keratinocytes, direct” value in test [6] is recorded as “cannot directly promote the proliferation”. Besides, the “migration of neutrophils when macrophages coexist” value in [7] is reported as “significantly causes the migration”. Further, in [8], the “migration of macrophages, direct” value is “does not directly cause the migration”. In addition, in test [9], the “migration of macrophages when macrophages coexist” value is recorded as “significantly causes the migration”.
